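Method: 48-hour compound exposure of cells in 96-well plates, five concentrations, linear interpolation of endpoints. The concentration for 50% growth inhibition is given as GI50. Definition used: TGI = concentration required for complete inhibition of growth.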
Assays:
Experiment in all cases: NCI tumour cell line growth inhibition, 48 h
A498 renal = test system: A498 renal
HOP-62 NSCLC = test system: HOP-62 NSCLC
DLD-1 colon = test system: DLD-1 colon
DMS 273 small cell lung = test system: DMS 273 small cell lung
HOP-18 NSCLC = test system: HOP-18 NSCLC
KM20L2 colon = test system: KM20L2 colon
P388 leukemia = test system: P388 leukemia
SN12K1 renal = test system: SN12K1 renal
XF 498 CNS = test system: XF 498 CNS

Structure (SMILES): CCOP(=O)(COCCn1nc(Br)c(=O)[nH]c1=O)OCC
- TGI (A498 renal): > 100 µM
- TGI (HOP-62 NSCLC): > 100 µM

Structure (SMILES): O=C1C=CC(=O)c2c(O)c(N3CCN(c4ncccn4)CC3)c(Cl)c(O)c21
- TGI (A498 renal): 6.49 µM
- TGI (HOP-62 NSCLC): 5.63 µM

Structure (SMILES): CN(C)C(=O)/N=C1\SC(=Nc2ccccc2)C(=Nc2ccccc2)N1c1ccc([N+](=O)[O-])cc1
- TGI (A498 renal): > 100 µM
- TGI (HOP-62 NSCLC): > 100 µM

Structure (SMILES): O=c1[nH]nc(-c2ccc([N+](=O)[O-])cc2)[nH]1
- TGI (A498 renal): > 100 µM
- TGI (HOP-62 NSCLC): > 100 µM

Structure (SMILES): CSc1ncnc2c1cnn2Cc1cn(COCC(O)CO)nn1 (stereo not drawn)
- TGI (A498 renal): > 100 µM
- TGI (HOP-62 NSCLC): > 100 µM

Structure (SMILES): OC(CCN1CCN(CCOC(c2ccc(F)cc2)c2ccc(F)cc2)CC1)c1ccc(Br)cc1 (stereo not drawn)
- TGI (A498 renal): 8.04 µM
- TGI (HOP-62 NSCLC): 14.5 µM

Structure (SMILES): O=C1c2cc3c(cc2-c2c1c1cc(F)c(F)cc1c(=O)n2C[C@H](O)CO)OCO3
- GI50 (A498 renal): 0.0834 µM
- TGI (A498 renal): 0.254 µM
- GI50 (HOP-62 NSCLC): 0.0225 µM
- TGI (HOP-62 NSCLC): 0.186 µM

Structure (SMILES): Cc1ccc(S(=O)(=O)N2CCc3cc(O)c([N+](=O)[O-])cc32)cc1
- TGI (A498 renal): > 100 µM
- TGI (HOP-62 NSCLC): > 100 µM

Structure (SMILES): CCC(C)C(NC(=O)C(CCCC[N+](=N)N)NC(=O)C(CCCC[N+](=N)N)NC(=O)c1ccc(OC)cc1)C(=O)NC(CCCC[N+](=N)N)C(=O)N1CCCC1C(=O)NC(CCCCN)C(=O)NC(CC(C)C)C(N)=O (stereo not drawn)
- TGI (A498 renal): > 100 µM
- TGI (HOP-62 NSCLC): > 100 µM

Structure (SMILES): CCCCCc1cc(CCCC)sc1-c1ccco1
- TGI (A498 renal): > 100 µM
- TGI (HOP-62 NSCLC): > 100 µM

Structure (SMILES): N#Cc1ccnc(C(=O)N2CCCC2C(=O)O)c1 (stereo not drawn)
- TGI (A498 renal): > 100 µM
- TGI (HOP-62 NSCLC): > 100 µM

Structure (SMILES): Cc1nc2ccccc2n1Cc1ccc(NC(=S)Nc2ccccc2)cc1
- TGI (A498 renal): > 100 µM
- TGI (HOP-62 NSCLC): > 100 µM

Structure (SMILES): CC(Br)CN(CC(C)Br)c1ccc2c(c1)Cc1ccccc1-2 (stereo not drawn)
- TGI (A498 renal): 26 µM
- TGI (HOP-62 NSCLC): 23.9 µM

Structure (SMILES): CCOP(=O)(CC1OC(CO)C(O)C1O)OCC (stereo not drawn)
- TGI (A498 renal): > 100 µM
- TGI (HOP-62 NSCLC): > 100 µM

Structure (SMILES): O=C1CCCC2=C1CC1=C(CCCC1=O)N2c1ccc(-c2ccccc2)cc1
- TGI (A498 renal): > 100 µM
- TGI (HOP-62 NSCLC): > 100 µM

Structure (SMILES): CC1=NN(c2cccc(Cl)c2)C2(C1=Cc1ccc(N(C)C)cc1)C(Cl)C(=O)N2c1nc2ccccc2s1 (stereo not drawn)
- TGI (A498 renal): > 100 µM
- TGI (HOP-62 NSCLC): > 100 µM

Structure (SMILES): O=c1ccn([C@@H]2C=C(CO)[C@@H](O)[C@H]2O)c(=O)[nH]1
- TGI (DLD-1 colon): > 625 µM
- TGI (DMS 273 small cell lung): > 625 µM
- TGI (HOP-18 NSCLC): > 625 µM
- TGI (HOP-62 NSCLC): > 625 µM
- TGI (KM20L2 colon): > 625 µM
- TGI (P388 leukemia): > 625 µM
- TGI (SN12K1 renal): > 625 µM
- TGI (XF 498 CNS): < 0.0625 µM

Structure (SMILES): CCOC(=O)c1c(-c2ccc(OC)cc2)c(C#N)c(=S)n(C2OC(CO)C(O)C(O)C2O)c1C (stereo not drawn)
- TGI (A498 renal): > 100 µM
- TGI (HOP-62 NSCLC): > 100 µM

Structure (SMILES): COC(=O)c1ccc2cc(O)ccc2c1
- TGI (A498 renal): > 100 µM
- TGI (HOP-62 NSCLC): > 100 µM

Structure (SMILES): CC1=[N+]([O-])C2(CCCC2)N(O)C1(C)C
- TGI (HOP-62 NSCLC): > 100 µM

Structure (SMILES): CC(C)(C)[Si](C)(C)OC1CCOC1(O)c1ccccn1 (stereo not drawn)
- TGI (A498 renal): > 100 µM
- TGI (HOP-62 NSCLC): > 100 µM

Structure (SMILES): CC12CCC(=O)[C@@]1(C)CCCC2=O (stereo partly drawn)
- TGI (HOP-62 NSCLC): > 100 µM

Structure (SMILES): O=c1cccc2n1CC1CNCC2C1 (stereo not drawn)
- TGI (A498 renal): > 100 µM
- TGI (HOP-62 NSCLC): > 100 µM

Structure (SMILES): C[N+]1(CCCCN2c3ccccc3Sc3cc(N=[N+]=[N-])ccc32)CCN(C(=O)CCNC(=O)Cc2ccc(C(=O)c3ccccc3)cc2)CC1
- TGI (A498 renal): 56.3 µM
- TGI (HOP-62 NSCLC): 44.9 µM

Structure (SMILES): Cc1nn(C(=O)c2ccccc2O)c2c1C(c1ccc([N+](=O)[O-])cc1)SC(N)=N2 (stereo not drawn)
- TGI (A498 renal): > 10 µM
- TGI (HOP-62 NSCLC): > 10 µM

Structure (SMILES): Brc1ccc2[nH]cc(-c3csc(-c4c[nH]c5ccc(Br)cc45)n3)c2c1
- TGI (A498 renal): 6.03 µM
- TGI (HOP-62 NSCLC): 13.7 µM
